From patent publication US6399626B1, “Hydroxyesters of 7-desmethylrapamycin” (Wyeth, priority 2000, dated 2002)
In brackets after ≈: the same amount, converted by molar mass.

What was measured:
Type in all cases: cell-based
[1] = test system: Aspergillus fumigatus; assay: Antifungal MIC, microtiter broth dilution; conditions: Aspergillus fumigatus strain ATCC 26933; 35° C., 24-48 hours
Procedure: (§1) The antifungal activity for the hydroxyesters of 7-desmethylrapamycin of this invention was confirmed in a standard pharmacological test procedure which measured the ability of the compound being evaluated to inhibit fungal growth. 7-Desmethylrapamycin 42-ester with 3-hydroxy-2-(hydroxymethyl)-2-methylpropionic acid (Compound I) was evaluated as a representative compound of this invention. The procedure used and results obtained are briefly described below. A 96 U-bottom microtiter plate was filled (50 μl/well) with RPMI 1640. The compounds to be evaluated were placed in appropriate wells, and serial diluted in successive wells to provide 11 dilutions. The concentrations ranged from 64 through 0.06 μg/ml. An adjusted inoculum of fungi (50 μl) was added to each well and the plates were incubated at 35° C. for 24-48 hours. […] Nystatin and amphotericin B were used for the purpose of comparison.

[2] = test system: Candida albicans; assay: Antifungal MIC, microtiter broth dilution; conditions: 35° C., 24-48 hours
Procedure: as §1

[3] = test system: Candida parapsilosis; assay: Antifungal MIC, microtiter broth dilution; conditions: 35° C., 24-48 hours
Procedure: as §1

[4] = test system: Candida pseudotropicalis; assay: Antifungal MIC, microtiter broth dilution; conditions: Candida pseudotropicalis strain ATCC 28838; 35° C., 24-48 hours
Procedure: as §1

[5] = test system: Candida krussii; assay: Antifungal MIC, microtiter broth dilution; conditions: Candida krussii strain 94-2; 35° C., 24-48 hours
Procedure: as §1

[6] = test system: Candida tropicalis; assay: Antifungal MIC, microtiter broth dilution; conditions: 35° C., 24-48 hours
Procedure: as §1

[7] = test system: Candida lusitaniae; assay: Antifungal MIC, microtiter broth dilution; conditions: Candida lusitaniae strain 94-3; 35° C., 24-48 hours
Procedure: as §1

[8] = test system: Candida rugosa; assay: Antifungal MIC, microtiter broth dilution; conditions: Candida rugosa strain 94-10; 35° C., 24-48 hours
Procedure: as §1

[9] = test system: Aspergillus niger; assay: Antifungal MIC, microtiter broth dilution; conditions: 35° C., 24-48 hours
Procedure: as §1

[10] = test system: U87MG human glioblastoma cells; assay: Inhibition of U87MG human glioblastoma cell growth (3H-thymidine incorporation); conditions: 48 hours incubation
Procedure: The antineoplastic activity of the compounds of this invention were confirmed in a standard pharmacological test procedure which measures the inhibition of U87MG human glioblastoma cell growth (as a function of ^3H-thymidine incorporation), using 7-desmethylrapamycin 42-ester with 3-hydroxy-2-(hydroxymethyl)-2-methylpropionic acid (Compound I) as are presentative compound of this invention. The following briefly describes the procedure used and results obtained. U87MG human glioblastoma cells (ATCC # HTB-14; available from the American Type Culture Collection; 10801 University Boulevard; Manassas, Va. 20110;), were grown in the following media.
BRL Minimum Essential Medium with Earle Salts (500 mL)
+5 mL BRL MEM Non-Essential Amino Acids (10 mM)
+5 mL BRL Penicillin-Streptomycin (10000 u/mL, 10000 μg/mL)
+5 mL BRL Na Pyruvate Solution (100 mM)
+5 mL BRL L-Glutamine 200 mM
+50 mL BRL Fetal Bovine Serum (Qualified)
1. Cells were trypsinized and plated at a concentration of 10^4 cells/well in a final volume of 200 μL growth medium in 96-well flat bottom plates and allowed to adhere for 24 hours at 37° C.
2. The media was removed by aspiration with care to not disturb the cell monolayer. 200 μL of fresh growth media was added per well, allowing enough wells for samples to be run in triplicate. […]
4. […] Mats were counted in a Wallac Betaplate counter.

[11] = Candida albicans strain ATCC 90028
[12] = Candida parapsilosis strain 94-8
[13] = Candida parapsilosis strain 94-9
[14] = Candida parapsilosis strain ATCC 90018
[15] = Candida tropicalis strain 94-13
[16] = Candida tropicalis strain 94-14

Structure (SMILES)	ANTIFUNGAL ACTIVITY (MIC) [1]	ANTIFUNGAL ACTIVITY (MIC) ([2]; Candida albicans strain 1063)	ANTIFUNGAL ACTIVITY (MIC) ([2]; Candida albicans strain 1117)	ANTIFUNGAL ACTIVITY (MIC) [2, 11]	ANTIFUNGAL ACTIVITY (MIC) [3, 12]	ANTIFUNGAL ACTIVITY (MIC) [3, 13]	ANTIFUNGAL ACTIVITY (MIC) [3, 14]	ANTIFUNGAL ACTIVITY (MIC) [4]	ANTIFUNGAL ACTIVITY (MIC) [5]	ANTIFUNGAL ACTIVITY (MIC) [6, 15]	ANTIFUNGAL ACTIVITY (MIC) [6, 16]	ANTIFUNGAL ACTIVITY (MIC) [7]	ANTIFUNGAL ACTIVITY (MIC) [8]	ANTIFUNGAL ACTIVITY (MIC) ([9]; Aspergillus niger strain S399)	ANTIFUNGAL ACTIVITY (MIC) ([9]; Aspergillus niger strain S430)	IC50 [10]
CO[C@@H]1C[C@H](C[C@@H](C)[C@@H]2CC(=O)[C@H](C)/C=C(\C)[C@@H](O)[C@@H](OC)C(=O)[C@H](C)C[C@H](C)/C=C/C=C/C=C(\C)[C@@H](O)C[C@@H]3CC[C@@H](C)[C@@](O)(O3)C(=O)C(=O)N3CCCC[C@H]3C(=O)O2)CC[C@H]1OC(=O)C(C)(CO)CO [Compound I, 7-Desmethylrapamycin 42-ester with 3-hydroxy-2-(hydroxymethyl)-2-methylpropionic acid]	64 µg/mL	1 µg/mL	4 µg/mL	1 µg/mL	2 µg/mL	4 µg/mL	2 µg/mL	2 µg/mL	0.5 µg/mL	1 µg/mL	1 µg/mL	1 µg/mL	2 µg/mL	64 µg/mL	64 µg/mL	0.0065 µg/mL (≈ 6.4 nM)
C[C@@H]1[C@H](O)[C@@H](C)/C=C/C=C/C=C/C=C/C=C/C=C/C=C/[C@H](O[C@@H]2O[C@H](C)[C@@H](O)[C@H](N)[C@@H]2O)C[C@@H]2O[C@](O)(C[C@@H](O)C[C@@H](O)[C@H](O)CC[C@@H](O)C[C@@H](O)CC(=O)O[C@H]1C)C[C@H](O)[C@H]2C(=O)O [Amphotericin B, amphotericin B]	0.25 µg/mL	≦0.06 μg/mL	0.12 µg/mL	0.12 µg/mL	≦0.06 μg/mL	0.12 µg/mL	≦0.06 μg/mL	≦0.06 μg/mL	0.12 µg/mL	≦0.06 μg/mL	≦0.06 μg/mL	≦0.06 μg/mL	0.25 µg/mL	0.50 µg/mL	0.25 µg/mL	–
C[C@@H]1[C@H](O)[C@@H](C)/C=C/C=C/CC/C=C/C=C/C=C/C=C/C(O[C@H]2O[C@H](C)[C@@H](O)[C@H](N)[C@@H]2O)CC2O[C@](O)(CC(O)C(O)CCC(O)CC(O)CC(O)CC(=O)O[C@H]1C)CC(O)C2C(=O)O (stereo partly shown) [Nystatin]	2 µg/mL	1 µg/mL	1 µg/mL	1 µg/mL	2 µg/mL	1 µg/mL	2 µg/mL	1 µg/mL	1 µg/mL	1 µg/mL	1 µg/mL	1 µg/mL	1 µg/mL	2 µg/mL	1 µg/mL	–
